One molecule from article PMC5460289, “Identification of New Shikonin Derivatives as Antitumor Agents Targeting STAT3 SH2 Domain” (Scientific Reports, 2017) can be followed below.

Molecules are shown by their SMILES.

What all share (assay type): cell-based, human
Experiment [1] relates to STAT3-TATA-Luc reporter in MDA-MB-231 cells. Put plainly: STAT3 dual-luciferase reporter assay. The following applies: MDA-MB-231, 24 h treatment. How it is done:
Figure 3 MDA-MB-231 cells were transfected with STAT3-TATA-Luc reporter and Renilla luciferase reporter plasmids. After 24 h, cells were treated with indicated concentrations of PMM-172 or Stattic for 24 h and then luciferase intensity was measured. Results are fold change ± SD of three independent experiments, *P < 0.05, **P < 0.01.
Cells were seeded in 24 well plates and transiently transfected together with STAT3 reporter plasmid 4 × M67 pTATA TK-Luc (0.2 μg/per well, Addgene, USA) and Renilla luciferase control reporter plasmid pRL-CMV (0.1 μg/per well, promega, USA), using lipofectamine 2000 (Invitrogen, USA). Then the cells were incubated with complete medium for 24 h with PMM-172 or Stattic. Following the treatment, the cells were harvested in 100 μL of passive lysis buffer (Promega, USA) in each well. A 25 μL aliquot of cell lysate was subjected to a luciferase assay by using the dual-luciferase assay kit (Promega, USA). STAT3 luciferase activity was measured by EnVision Mutilabel Reader (Perkin Elmer, USA). Relative luciferase activity was calculated after the activity of STAT3-dependent firefly luciferase had been normalized to that of Renilla luciferase. All values are expressed as - fold induction relative to basal activity.

In experiment [2] the test system is STAT3 nuclear localization in MDA-MB-231 cells. The experiment can be described thus: STAT3 nuclear localization (cytoplasmic and nuclear extracts, Western blot). The following applies: MDA-MB-231, 24 h. How it is done:
It is known that the dimerization of STAT3 is induced by the phosphorylation at residue Tyr 705, which then leads to its nuclear translocation. Herein, we investigated the effect of PMM-172 and Stattic on STAT3 nuclear translocation. The cytoplasmic and nuclear proteins of treated cells were extracted and the expressions of STAT3 in both fractions were examined.
Figure 7 MDA-MB-231 cells were treated with indicated concentrations of PMM-172 or Stattic for 24 h, the expression levels of STAT3 in cytoplasmic and nuclear extracts were examined and relative expression levels were analyzed by Image J software. β-actin and Lamin B1 served as markers of cytoplasmic and nuclear extractions, respectively. […] (C) MCF-10A cells were treated with the indicated concentrations of PMM-172 for 24 h. PMM-172 had no effect on the level of the pSTAT3 level in MCF-10A cells. […] Data were shown as mean ± SD from three independent experiments, **P < 0.01. Cropped blots/gels were used in the figure and the gels had been run under the same experimental conditions; the full-length blots/gels are presented in Supplementary Figure S3.
To examine the relative proportion of STAT3 in the cytoplasm and nucleus, cytoplasmic and nuclear extracts were prepared. In brief, control and treated cells were collected and suspended in a buffer containing 10 mM HEPES (pH 7.9), 10 mM KCl, 0.1 mM EDTA (pH 8.0), 0.1 mM EGTA (pH 7.0), 1 mM DTT, 0.5 mM PMSF, 2 μg/mL leupeptin, 2 μg/mL aprotonin, 0.5 mg/mL benzamidine. After 15 min, NP-40 (0.25%) was added, and cell lysate was vortexed for 10 s and centrifuged at 10000 rmp at 4 °C for 1 min. […] The protein content in the nuclear and cytoplasmic fractions was determined using a Pierce BCA protein assay kit.
Cells were rinsed twice with cold PBS and then lysed with RIPA buffer containing a protease inhibitor mixture at 1:100 dilution on ice for 30 min. Insoluble components of cell lysates were removed by centrifugation (4 °C, 12000 rmp, 10 min), and protein concentrations were measured using a Pierce BCA protein assay kit. […]

In experiment [3] the test system is pSTAT3 (Tyr705) in MDA-MB-231 cells. The experiment can be described thus: Western blot of constitutive STAT3 activation. An excerpt:
It has been well recognized that the aberrant activation of STAT3 contributes to malignant transformation and tumorgenesis, and its activity is ultimately dependent upon phosphorylation of residue Y705. […] In this study, the ability of PMM-172 and Stattic inhibiting the constitutive STAT3 activation in MDA-MB-231 cells was investigated. […] We further measured STAT3 phosphorylation at Tyr705 in a time-course experiment.
Figure 6 (A) PMM-172 suppressed constitutive pSTAT3 (Tyr705) in a dose-dependent manner. (B) PMM-172 suppressed constitutive pSTAT3 (Tyr705) in a time-dependent manner. (C) MDA-MB-231 cells were treated with IL-6 (20 ng/mL) or vehicle for 30 min, with or without pretreatment with PMM-172 (2 μM) for 24 h. PMM-172 inhibited IL-6 induced phosphorylation of STAT3. (D) Stattic suppressed constitutive pSTAT3 (Tyr705) in a dose-dependent manner. (E) Stattic suppressed constitutive pSTAT3 (Tyr705) in a time-dependent manner. (F) Tyrosine phosphorylation of two STAT family proteins STAT1 and STAT5 were detected with specific antibodies. […] Data were shown as mean ± SD of three independent experiments. *P < 0.05, **P < 0.01. Cropped blots/gels were used in the figure and the gels had been run under the same experimental conditions; the full-length blots/gels are presented in Supplementary Figure S2.
Cells were rinsed twice with cold PBS and then lysed with RIPA buffer containing a protease inhibitor mixture at 1:100 dilution on ice for 30 min. Insoluble components of cell lysates were removed by centrifugation (4 °C, 12000 rmp, 10 min), and protein concentrations were measured using a Pierce BCA protein assay kit. Proteins were separated by sodium dodecyl sulfate-polyacrylamide gel electrophoresis (SDS-PAGE) and transferred from the gel onto polyvinylidene difluoride (PVDF) membranes. The membranes were blocked with 5% skim milk in TBST buffer for 1 h at room temperature, and then incubated with corresponding primary antibodies diluted in 5% milk-TBST solution at 4 °C with gentle shaking overnight. After washing five times (5 min each), corresponding HRP-conjugated secondary antibodies were incubated for 1 h at room temperature. Immunoreactive bands were visualized using an ECL detection kit (Invitrogen, USA) following the manufacturer’s instruction.

A further experiment relates to SKBR-3. The experiment can be described thus: MTT anti-proliferation assay. The following applies: 24 h treatment. How it is done:
(§1) Initial experiments were performed for evaluation of growth inhibition by the new compounds against six human breast cancer cell lines, including MCF-7 (ER+/PR+, HER-2-), BT474 (ER+/PR+, HER-2+), SKBR-3 (ER-/PR-/HER-2+), MDA-MB-436 (ER-/PR-/HER-2-), MDA-MB-231 (ER-/PR-/HER-2-), MDA-MB-468 (ER-/PR-/HER-2-) and non-tumorigenic MCF-10A cells. After 24 h treatment by the obtained compounds, the inhibition was assessed and the IC50 was summarized. […] Subsequently, the inhibition of STAT3 activation by PMM-172 and Stattic was evaluated using a dual-luciferase assay.
(§2) The anti-proliferative activities of the prepared compounds against MCF-7 (ER+/PR+, HER-2-), BT474 (ER+/PR+, HER-2+), SKBR-3 (ER-/PR-/HER-2+), MDA-MB-436 (ER-/PR-/HER-2-), MDA-MB-231 (ER-/PR-/HER-2-), MDA-MB-468 (ER-/PR-/HER-2-) and non-tumorigenic MCF-10A cell lines were evaluated using a standard (MTT)-based colorimetric assay with some modification. Cell lines were grown to log phase in DMEM supplemented with 10% fetal bovine serum. Cell suspensions were prepared and 100 μL/well dispensed into 96-well plates giving 10^4 cells/well. The subsequent incubation was permitted at 37 °C, 5% CO2 atmosphere for 24 h to allow the cells to reattach. Subsequently, cells were treated with the target compounds at increasing concentrations in the presence of 10% FBS for 24 h. Then, cell viability was assessed by the conventional 3-(4, 5-dimethylthiazol-2-yl)-2, 5-diphenyltetrazolium bromide (MTT) reduction assay and carried out strictly according to the manufacturer instructions. The absorbance (OD570) was read on an ELISA reader (Tecan, Austria). In all experiments, three replicate wells were used for each drug concentration. Each assay was carried out for at least three times.

Another experiment concerns MDA-MB-231. The experiment can be described thus: MTT anti-proliferation assay. The following applies: 24 h treatment. How it is done:
as §1, §2

The test system of another experiment is MDA-MB-468. The experiment can be described thus: MTT anti-proliferation assay. The following applies: 24 h treatment. How it is done:
as §1, §2

For the next experiment, the system named is MCF-7. Put plainly: MTT anti-proliferation assay. To be noted: 24 h treatment. How it is done: as §1, §2
The subject of the next experiment is MDA-MB-436. The experiment can be described thus: MTT anti-proliferation assay. The following applies: 24 h treatment. How it is done: as §1, §2
The test system of the next experiment is BT-474. Put plainly: MTT anti-proliferation assay. To be noted: 24 h treatment. How it is done: as §1, §2

Regarding `O=[N+]([O-])c1ccc2c(c1)S(=O)(=O)C=C2` [Stattic, reference compound], the STAT3 luciferase activity entry in experiment [1] is “only a slight advantage over PMM-172”. Also, in experiment [2], the “level of STAT3 in the nuclear fraction” value was “suppressed STAT3 nuclear localization”. For the same molecule, the STAT3 expression entry in experiment [3] is recorded as “had no effect on STAT3 expression”. Further, in experiment [3], the “STAT3 phosphorylation at Tyr705, time-course” value was “reduced with the longer treatment”. Besides, the “level of Y705-phosphorylated STAT3 (constitutive), dose series” value in [3] is “could reduce the level of Y705-phosphorylated STAT3 in MDA-MB-231 cells in a dose-dependent manner”. Further, the IC50 with SKBR-3 came to 3.39 ± 0.56 µM; with MDA-MB-231, 3.18 ± 0.33 µM; in the experiment on MDA-MB-468, 3.54 ± 0.42 µM; in the experiment on MCF-7, 5.85 ± 0.72 µM; with MDA-MB-436 it was 3.76 ± 0.5 µM; with BT-474, 5.11 ± 0.57 µM.
